In patent US11986471B2, “Compounds and methods of use” (Tango Therapeutics, Inc., priority 2018, dated 2024):

Key:
HAP1 MTAP-deleted = experiment: SDMA in-cell western assay, HAP1 MTAP-deleted cell line; assay type: cell-based; conditions: for IC50: Homo sapiens, HAP1 MTAP-deleted cell line; for MTAP Intact/Deleted Ratio: IC50 ratio HAP1 MTAP-intact / HAP1 MTAP-deleted
Procedure, shortened: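 IC50 from SDMA in-cell western; HAP1 line lacking MTAP (null), paired isogenically with MTAP-intact HAP1 expressing endogenous MTAP.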

HAP1 MTAP-intact = experiment: SDMA in-cell western assay, HAP1 MTAP-intact cell line; assay type: cell-based; conditions: Homo sapiens
Procedure, shortened: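 HAP1 isogenic pair: endogenous MTAP vs MTAP-null. Readout SDMA by in-cell western; IC50 per line. Ratio ≥3 fold = MTAP-selective.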

PRMT5 [1] = biological target: T1, PRMT5 (Homo sapiens, UniProt O14744); experiment: PRMT5 IC50 assay with no cofactor; assay type: biochemical; conditions: read-out: No Co-factor IC50
T1 construct: purchased Viva (custom protein)
T1 sequence (O14744 whole entry): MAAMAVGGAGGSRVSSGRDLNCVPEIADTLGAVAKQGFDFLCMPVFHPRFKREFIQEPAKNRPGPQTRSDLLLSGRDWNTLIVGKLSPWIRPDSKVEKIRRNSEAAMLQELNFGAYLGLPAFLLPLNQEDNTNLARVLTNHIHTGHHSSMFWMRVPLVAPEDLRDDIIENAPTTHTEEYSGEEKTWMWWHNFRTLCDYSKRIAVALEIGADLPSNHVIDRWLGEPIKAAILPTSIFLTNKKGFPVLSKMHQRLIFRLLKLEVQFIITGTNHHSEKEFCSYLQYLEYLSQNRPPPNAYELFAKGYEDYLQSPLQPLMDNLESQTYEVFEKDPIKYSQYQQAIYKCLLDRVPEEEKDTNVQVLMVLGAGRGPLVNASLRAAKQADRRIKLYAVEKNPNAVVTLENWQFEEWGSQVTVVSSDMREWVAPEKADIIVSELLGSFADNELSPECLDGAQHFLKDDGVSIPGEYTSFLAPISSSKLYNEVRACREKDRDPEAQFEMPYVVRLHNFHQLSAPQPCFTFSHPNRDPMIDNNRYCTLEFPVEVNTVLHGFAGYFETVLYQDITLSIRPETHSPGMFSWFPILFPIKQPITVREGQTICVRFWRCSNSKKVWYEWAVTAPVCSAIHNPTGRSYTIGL
T1 sequence (Q9BQA1 whole entry partner): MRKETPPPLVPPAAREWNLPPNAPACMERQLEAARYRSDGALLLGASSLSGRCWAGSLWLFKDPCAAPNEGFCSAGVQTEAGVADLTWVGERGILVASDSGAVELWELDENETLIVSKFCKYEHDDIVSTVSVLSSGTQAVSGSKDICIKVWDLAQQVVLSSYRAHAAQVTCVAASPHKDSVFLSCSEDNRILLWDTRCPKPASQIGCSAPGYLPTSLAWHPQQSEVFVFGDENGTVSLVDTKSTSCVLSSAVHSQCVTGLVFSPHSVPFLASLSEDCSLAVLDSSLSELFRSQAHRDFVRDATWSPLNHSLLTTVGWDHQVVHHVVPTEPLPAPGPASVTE
Procedure, shortened: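 Results given as IC50 (μM), from which Ki follows by dividing by 1.5 in the SAM condition or by 13.5 in the MTA condition. The ratio of SAM Ki to MTA Ki indicates MTA-cooperative preference.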

PRMT5 [2] = biological target: T1, PRMT5; experiment: PRMT5 IC50 assay in the presence of MTA as cofactor; assay type: biochemical; conditions: for IC50: PRMT5, MTA as cofactor; for SAM/MTA Ratio: ratio between Ki in the presence of SAM and Ki in the presence of MTA
Procedure, shortened: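 MTA-dependent versus SAM-dependent inhibition of human PRMT5 was assessed by IC50; conversion factors of 13.5 and 1.5 gave the corresponding Ki.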

PRMT5 [3] = biological target: T1, PRMT5; experiment: PRMT5 IC50 assay in the presence of SAM as cofactor; assay type: biochemical
Procedure, shortened: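 Three cofactor conditions tested for PRMT5 inhibition: none, MTA and SAM, each giving an IC50. For conversion to Ki, the MTA-condition IC50 is divided by 13.5 and the SAM-condition IC50 by 1.5, and the two Ki values are expressed as a SAM/MTA ratio.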

| Structure (SMILES) | IC50 (HAP1 MTAP-deleted) | IC50 (HAP1 MTAP-intact) | IC50 (PRMT5 [1]) | IC50 (PRMT5 [2]) | IC50 (PRMT5 [3]) | MTAP Intact/Deleted Ratio (HAP1 MTAP-deleted) | SAM/MTA Ratio (PRMT5 [2]) |
| --- | --- | --- | --- | --- | --- | --- | --- |
| CC(=O)N1CC(Nc2cc(C(=O)NC[C@H](O)CN3CCc4c(ccc(OCc5cnco5)c4Cl)C3)nc(C(C)C)n2)C1 [Compound 342, (S)-6-((1-acetylazetidin-3-yl)amino)-N-(3-(5-chloro-6-(oxazol-5-ylmethoxy)-3,4-dihydroisoquinolin-2(1H)-yl)-2-hydroxypropyl)-2-isopropylpyrimidine-4-carboxamide] | < 1000 nM | ≥ 10000 nM | 500 to 5000 nM | 50 to 500 nM | 50 to 500 nM | A* (an IC50 ratio greater than or equal to 10 fold between the IC50 in the HAP1 MTAP-intact cell line and the HAP1 MTAP-deleted cell line) | A (a Ki ratio greater than or equal to 10 fold between the Ki in the presence of SAM and the Ki in the presence of MTA) |
| O=C(NC[C@H](O)CN1CCc2c(ccc(OCc3cnco3)c2Cl)C1)c1ccnc(NC2CCCC(F)(F)C2)c1 (stereo partly drawn) [Compound 347] | ≥ 10000 nM | ≥ 10000 nM | ≥ 5000 nM | 50 to 500 nM | 50 to 500 nM | C* (an IC50 ratio of less than 3 fold between the IC50 in the HAP1 MTAP-intact cell line and the HAP1 MTAP-deleted cell line) | A (a Ki ratio greater than or equal to 10 fold between the Ki in the presence of SAM and the Ki in the presence of MTA) |
| Cc1c(OCc2cnco2)ccc2c1CCN(C[C@@H](O)CNC(=O)c1cccc(NC3CCC3)c1)C2 [Compound 351, 3-(cyclobutylamino)-N-[(2S)-2-hydroxy-3-{5-methyl-6-[(1,3-oxazol-5-yl)methoxy]-1,2,3,4-tetrahydroisoquinolin-2-yl}propyl]benzamide] | ≥ 10000 nM | ≥ 10000 nM | ≥ 5000 nM | 50 to 500 nM | 500 to 5000 nM | C* (an IC50 ratio of less than 3 fold between the IC50 in the HAP1 MTAP-intact cell line and the HAP1 MTAP-deleted cell line) | A (a Ki ratio greater than or equal to 10 fold between the Ki in the presence of SAM and the Ki in the presence of MTA) |
| CC(=O)N1CC(Nc2cc(C(=O)NC[C@H](O)CN3CCc4c(ccc(OCc5cnco5)c4Cl)C3)nc(N3CCOCC3)n2)C1 [Compound 352, (S)-6-((1-acetylazetidin-3-yl)amino)-N-(3-(5-chloro-6-(oxazol-5-ylmethoxy)-3A-dihydroisoquinolin-2(1H)-yl)-2-hydroxypropyl)-2-morpholinopyrimidine-4-carboxamide] | 1000 to 10000 nM | ≥ 10000 nM | 500 to 5000 nM | 50 to 500 nM | 50 to 500 nM | C* (an IC50 ratio of less than 3 fold between the IC50 in the HAP1 MTAP-intact cell line and the HAP1 MTAP-deleted cell line) | A (a Ki ratio greater than or equal to 10 fold between the Ki in the presence of SAM and the Ki in the presence of MTA) |
| CCN1CCN(c2nc(NC3COC3)cc(C(=O)NC[C@H](O)CN3CCc4cc(OCc5cnco5)ccc4C3)n2)CC1 [Compound 353] | 1000 to 10000 nM | 1000 to 10000 nM | 500 to 5000 nM | 50 to 500 nM | 50 to 500 nM | C* (an IC50 ratio of less than 3 fold between the IC50 in the HAP1 MTAP-intact cell line and the HAP1 MTAP-deleted cell line) | A (a Ki ratio greater than or equal to 10 fold between the Ki in the presence of SAM and the Ki in the presence of MTA) |

The next lines start with results.

| IC50 (HAP1 MTAP-deleted) | IC50 (HAP1 MTAP-intact) | IC50 (PRMT5 [1]) | IC50 (PRMT5 [2]) | IC50 (PRMT5 [3]) | Structure (SMILES) | MTAP Intact/Deleted Ratio (HAP1 MTAP-deleted) | SAM/MTA Ratio (PRMT5 [2]) |
| --- | --- | --- | --- | --- | --- | --- | --- |
| 1000 to 10000 nM | ≥ 10000 nM | ≥ 5000 nM | 500 to 5000 nM | 500 to 5000 nM | CC(=O)N1CCC(Nc2cc(C(=O)NC[C@H](O)CN3CCc4c(ccc(OCc5cnn[nH]5)c4Cl)C3)ncn2)CC1 [Compound 343, 6-[(1-acetyl-4-piperidyl)amino]-N-[(2S)-3-[5-chloro-6-(1H-triazol-5-ylmethoxy)-3,4-dihydro-1H-isoquinolin-2-yl]-2-hydroxy-propyl]pyrimidine-4-carboxamide] | C* (an IC50 ratio of less than 3 fold between the IC50 in the HAP1 MTAP-intact cell line and the HAP1 MTAP-deleted cell line) | A (a Ki ratio greater than or equal to 10 fold between the Ki in the presence of SAM and the Ki in the presence of MTA) |
| ≥ 10000 nM | ≥ 10000 nM | ≥ 5000 nM | 50 to 500 nM | 50 to 500 nM | Cc1ncoc1COc1ccc2c(c1Cl)CCN(C[C@@H](O)CNC(=O)c1cccc(NC3CCC3)c1)C2 [Compound 344, N-[(2S)-3-{5-chloro-6-[(4-methyl-1,3-oxazol-5-yl)methoxy]-1,2,3,4-tetrahydroisoquinolin-2-yl}-2-hydroxypropyl]-3-(cyclobutylamino)benzamide] | C* (an IC50 ratio of less than 3 fold between the IC50 in the HAP1 MTAP-intact cell line and the HAP1 MTAP-deleted cell line) | A (a Ki ratio greater than or equal to 10 fold between the Ki in the presence of SAM and the Ki in the presence of MTA) |
| 1000 to 10000 nM | ≥ 10000 nM | ≥ 5000 nM | 50 to 500 nM | 50 to 500 nM | COCCN(C)c1cc(C(=O)NC[C@H](O)CN2CCc3c(ccc(OCc4cnco4)c3Cl)C2)cc(NC2CCC2)n1 [Compound 345] | B* (an IC50 ratio greater than or equal to 3 fold but lower than 10 fold between the IC50 in the HAP1 MTAP-intact cell line and the HAP1 MTAP-deleted cell line) | A (a Ki ratio greater than or equal to 10 fold between the Ki in the presence of SAM and the Ki in the presence of MTA) |
| ≥ 10000 nM | ≥ 10000 nM | ≥ 5000 nM | 50 to 500 nM | 500 to 5000 nM | Cc1ncoc1COc1ccc2c(c1Br)CCN(C[C@@H](O)CNC(=O)c1ccnc(NC3CCCCC3)c1)C2 [Compound 346, (S)—N-(3-(5-bromo-6-((4-methyloxazol-5-yl)methoxy)-3N-dihydroisoquinolin-2(1H)-yl)-2-hydroxypropyl)-2-(cyclohexylamino)isonicotinamide] | C* (an IC50 ratio of less than 3 fold between the IC50 in the HAP1 MTAP-intact cell line and the HAP1 MTAP-deleted cell line) | A (a Ki ratio greater than or equal to 10 fold between the Ki in the presence of SAM and the Ki in the presence of MTA) |
| ≥ 10000 nM | ≥ 10000 nM | ≥ 5000 nM | 500 to 5000 nM | 500 to 5000 nM | O=C(NC[C@H](O)CN1CCc2c(ccc(OCc3cnco3)c2Br)C1)c1cccc(NC2CCC2)c1 [Compound 348, (S)—N-(3-(5-bromo-6-(oxazol-5-ylmethoxy)-3,4-dihydroisoquinolin-2(1H)-yl)-2-hydroxypropyl)-3-(cyclobutylamino)benzamide] | C* (an IC50 ratio of less than 3 fold between the IC50 in the HAP1 MTAP-intact cell line and the HAP1 MTAP-deleted cell line) | A (a Ki ratio greater than or equal to 10 fold between the Ki in the presence of SAM and the Ki in the presence of MTA) |
| < 1000 nM | < 1000 nM | 500 to 5000 nM | 50 to 500 nM | 50 to 500 nM | CC(=O)N1CC(Nc2cc(C(=O)NC[C@H](O)CN3CCc4cc(OCc5cnco5)ccc4C3)nc(C(C)C)n2)C1 [Compound 349, (S)-6-((1-acetylazetidin-3-yl)amino)-N-(2-hydroxy-3-(6-(oxazol-5-ylmethoxy)-3,4-dihydroisoquinolin-2(1H)-yl)propyl)-2-isopropylpyrimidine-4-carboxamide] | C* (an IC50 ratio of less than 3 fold between the IC50 in the HAP1 MTAP-intact cell line and the HAP1 MTAP-deleted cell line) | A (a Ki ratio greater than or equal to 10 fold between the Ki in the presence of SAM and the Ki in the presence of MTA) |
| ≥ 10000 nM | ≥ 10000 nM | ≥ 5000 nM | 50 to 500 nM | 50 to 500 nM | Cc1ncoc1COc1ccc2c(c1Br)CCN(C[C@@H](O)CNC(=O)c1ccnc(NC3CCCC3)c1)C2 [Compound 350, (S)—N-(3-(5-bromo-6-((4-methyloxazol-5-yl)methoxy)-3,4-dihydroisoquinolin-2(1H)-yl)-2-hydroxypropyl)-2-(cyclopentylamino)isonicotinamide] | C* (an IC50 ratio of less than 3 fold between the IC50 in the HAP1 MTAP-intact cell line and the HAP1 MTAP-deleted cell line) | A (a Ki ratio greater than or equal to 10 fold between the Ki in the presence of SAM and the Ki in the presence of MTA) |
| ≥ 10000 nM | ≥ 10000 nM | ≥ 5000 nM | 500 to 5000 nM | 500 to 5000 nM | Cc1ncoc1COc1ccc2c(c1Br)CCN(C[C@@H](O)CNC(=O)c1cccc(NC3CCC3)c1)C2 [Compound 354, (S)—N-(3-(5-bromo-6-((4-methyloxazol-5-yl)methoxy)-3,4-dihydroisoquinolin-2(1H)-yl)-2-hydroxypropyl)-3-(cyclobutylamino)benzamide] | C* (an IC50 ratio of less than 3 fold between the IC50 in the HAP1 MTAP-intact cell line and the HAP1 MTAP-deleted cell line) | – |
